Experimental data from US11060087B2, “Synthetic promoters for high throughput screening and gene modulation” (The Regents of the University of California, priority 2016, dated 2021).

B1: BL-3: LAMC2 synthetic promoter generated from the endogenous promoter of LAMC2 (LamS1, SEQ ID NO: 10/11) (nucleic acid, listed as Homo sapiens)
DNA 1: CGGGCCAGGTGTGCGCCCTCCTCGCTGCGAGGGGGAGCGGGCGGCTGCGGGGAGCGATTTTCCAGCCCGGTTTGTGCTCTGTGTGTTTGTCTGCCTCTGGAGGGCTGGGTCCTCCTTATTCACAGGTGAGTCACACCCTGAAACACAGGCTCTCTTCCTGTCAGGACTGAGTCAGGTAGAAGAGTCGTGCGCCCTCCTCGCTGCGAGGGGGAGCGGGCGGCTGCGGGGAGCGATTTTCCAGCCCGGTTTGTGCTCTGTGTGTTTGTCTGCCTCTGGAGGGCTGGGTCCTCCTTATTCACAGGTGAGTCACACCCTGAAACACAGGCTCTCTTCCTGTCAGGACTGAGTCAGGTAGAAGAGTCGTGCGCCCTCCTCGCTGCGAGGGGGAGCGGGCGGCTGCGGGGAGCGATTTTCCAGCCCGGTTTGTGCTCTGTGTGTTTGTCTGCCTCTGGAGGGCTGGGTCCTCCTTATTCACAGGTGAGTCACACCCTGAAACACAGGCTCTCTTCCTGTCAGGACTGAGTCAGGTAGAAGAGTCAAGCTTATAAAACCACCTGATCAAGGAAAAGGAAGGCACAGCGGAGCGCAGAGTGAGAACCACCAACCGGAATTC
DNA 2: CGGTCGGGCCAGGTGTGCGCCCTCCTCGCTGCGAGGGGGAGCGGGCGGCTGCGGGGAGCGATTTTCCAGCCCGGTTTGTGCTCTGTGTGTTTGTCTGCCTCTGGAGGGCTGGGTCCTCCTTATTCACAGGTGAGTCACACCCTGAAACACAGGCTCTCTTCCTGTCAGGACTGAGTCAGGTAGAAGAGTCGTGCGCCCTCCTCGCTGCGAGGGGGAGCGGGCGGCTGCGGGGAGCGATTTTCCAGCCCGGTTTGTGCTCTGTGTGTTTGTCTGCCTCTGGAGGGCTGGGTCCTCCTTATTCACAGGTGAGTCACACCCTGAAACACAGGCTCTCTTCCTGTCAGGACTGAGTCAGGTAGAAGAGTCGTGCGCCCTCCTCGCTGCGAGGGGGAGCGGGCGGCTGCGGGGAGCGATTTTCCAGCCCGGTTTGTGCTCTGTGTGTTTGTCTGCCTCTGGAGGGCTGGGTCCTCCTTATTCACAGGTGAGTCACACCCTGAAACACAGGCTCTCTTCCTGTCAGGACTGAGTCAGGTAGAAGAGTCAAGCTTATAAAACCACCTGATCAAGGAAAAGGAAGGCACAGCGGAGCGCAGAGTGAGAACCACCAACCG

Columns and labels:
islet neoplasia (INeo) = experiment: Potentiation of the INeo response to somatostatin analogues; conditions: preliminary data
From the text: The following are key findings in this field: 1.

BIRC5 = experiment: High-throughput screening of FDA-approved drug library, BIRC5 synthetic promoter-driven luciferase; type: cell-based, human; conditions: BIRC5SP-Luc2-Puro MiaPaca2 cells, 48 hours after drug administration, Bright-Glo / CellTiter-Glo
From the text: Differentially over-expressed BIRC5 was validated using RT-PCR in rPDAC versus matching non-tumor pancreas (FIG. 8A), as well as western blot assay of ATCC™ PDAC cell lines (FIG. 8B). These preliminary data support the WGCNA that BIRC5 is an actionable gene (AG) for rPDAC. A powerful synthetic promoter for BIRC5, BIRC5-SP (BL-2), was generated (FIG. 8C) and used for BIRC5^SP-Luc2-Puro stable transfection into MiaPaca2 cells, which in turn were used for high-throughput small molecule screening (HTS) of the FDA-approved drug library. BIRC5^SP-Luc2-Puro PDAC cells were plated on 384-well plates and 2100 FDA-approved drugs were applied to cells with a pin plate automatic system. Luciferase expression was measured in a plate reader 48 hours after drug administration using Bright-Glo™. Cell viability of treated cells was measured using CellTiter-Glo™. BIRC5-luciferase signal read outs were normalized using cell viability measurements. Inhibitory drugs include daunorubicin and paclitaxel (Kusukawa N, Ishida H, Tanase K, Ito H, Aoki Y, Ooyama N, et al. [Successful treatment with docetaxel and prednisolone for paxlitaxel and carboplatin-resistant prostate cancer]. Hinyokika kiyo Acta urologica Japonica. 2013; 59(5):301-4. PubMed PMID: 23719139), as well as other novel rPDAC drugs such as bergenin, simvastatin, fluvastatin (Garwood E R, Kumar A S, Baehner F L, Moore D H, Au A, Hylton N, et al. Fluvastatin reduces proliferation and increases apoptosis in women with high grade breast cancer. Breast cancer research and treatment. 2010; 119(1):137-44. doi: 10.1007/s10549-009-0507-x. PubMed PMID: 19728082; PubMed Central PMCID: PMC4087110; Bocci G, Fioravanti A, Orlandi P, Bernardini N, Collecchi P, Del Tacca M, et al. Fluvastatin synergistically enhances the antiproliferative effect of gemcitabine in human pancreatic cancer MIAPaCa-2 cells. British journal of cancer. 2005; 93(3):319-30. doi: 10.1038/sj.bjc.6602720. […]

[1] = system: pancreatic ductal adenocarcinoma cells (PANC-1, MIA PaPc2, AsPc-1, and Capan-2); experiment: LAMC2 synthetic promoter luciferase reporter assay in PDAC cell lines; type: cell-based, human
From the text: FIG. 22 is a graph showing the relative luciferase activity of various synthetic LAMC2 promoters (i.e. LamS1, Lams1E4T, Lams2E4T, and Lams3E4T) and CMV in various cell lines, in accordance with one or more embodiments of the invention.
(§1) FIG. 23 is a graph showing the relative luciferase activity of an endogenous LAMC2 promoter (LAMC2-EP-Luc), a synthetic LAMC2 promoter (LAMC2-SP-Luc), and CMV in various cell lines, in accordance with one or more embodiments of the invention.
LAMC2 is a key oncologic regulator of apoptosis that is also over-expressed in most cancers, including pancreatic cancer, but not in normal cells. In one aspect of the invention, a LAMC2 synthetic promoter (BL-3) generated from the endogenous promoter of LAMC2 is provided that is 1000× more powerful than the endogenous promoter and also more powerful than the cytomegalovirus (CMV) promoter in stimulating gene expression. The promoter competes with the CMV promoter, which is non-specific for cancer. The BL-3 synthetic promoter is more highly specific for cancer, especially pancreatic cancer, since it is not expressed in normal cells, including islets of Langerhans, and therefore is less toxic. The technique to generate the LAMC2 synthetic promoter (BL-3) and its uses are similar to U.S. patent application Ser. No. 14/396,967, which describes a synthetic BL-1 promoter for the insulin gene. However, the synthetic BL-1 promoter is expressed in islets of Langerhans, which therefore can lead to […] and diabetes as a toxic effect.

[2] = system: human primary pancreatic epithelial cells (HPPE); experiment: LAMC2 synthetic promoter luciferase reporter assay in normal cells; type: cell-based; conditions: HPPE and human pancreatic duct epithelial cells (FIG. 23)
From the text: as §1

| Molecule | effect on the INeo response to SAs (islet neoplasia (INeo)) | effect on BIRC5-luciferase signal normalized using cell viability (BIRC5) | other results |
| --- | --- | --- | --- |
| C[C@H](N)COC(=O)[C@H](CCCCN)NC(=O)Cc1c(-c2ccc3ccccc3c2)[nH]c2c1ccc1ccccc12 [SSTR5 small molecule agonist] | potentiates the INeo response to SAs | – | – |
| COc1c(O)cc2c(c1O)[C@@H]1O[C@H](CO)[C@@H](O)[C@H](O)[C@H]1OC2=O [bergenin] | – | Inhibitory | – |
| COc1cccc2c1C(=O)c1c(O)c3c(c(O)c1C2=O)C[C@@](O)(C(C)=O)C[C@@H]3O[C@H]1C[C@H](N)[C@H](O)[C@H](C)O1 [daunorubicin] | – | Inhibitory | – |
| CN(C)C(=N)N=C(N)N [metformin] | potentiate the INeo response to SAs | – | – |
| CC(=O)O[C@H]1C(=O)[C@@]2(C)[C@H]([C@H](OC(=O)c3ccccc3)[C@]3(O)C[C@H](OC(=O)[C@H](O)[C@@H](NC(=O)c4ccccc4)c4ccccc4)C(C)=C1C3(C)C)[C@]1(OC(C)=O)CO[C@@H]1C[C@@H]2O [paclitaxel] | – | Inhibitory | – |
| B1 | – | – | more powerful than the endogenous promoter in stimulating gene expression ([1]; LAMC2 synthetic promoter vs endogenous LAMC2 promoter): 1000 ×; relative luciferase activity in comparison to endogenous LAMC2 promoter and CMV promoter ([1]; PANC-1, MIA PaPc2, AsPc-1, Capan-2 (FIG. 23)): greatest amount of activity; relative luciferase activity among synthetic LAMC2 promoters and CMV ([1]; various cell lines (FIG. 22)): greatest amount of luciferase activity; relative luciferase activity in normal pancreatic cells [2]: no activity |
